# Data reported in patent publication US20080299101A1, “Cancer Treatment Resistance and Agents Modulating Such Resistance” (CENTRE NATIONAL DE LA RECHERCHE SCIENTIFIQUE (CNRS INSTITUT …, priority 2004, published 2008).
# “Also recorded” adds a separate entry of the source. *1 amine or outer side, *2 acyl side, *3 side chain or, on linkers, in order; H or OH if unused. Where a SMILES comes first, the peptide text is derived from it. Bridges are numbered along the chain shown (N, C = ends). Roman numbers before positions name the chains, in order. [ ]: non-standard residue; d: D form. Actinocin(9to1) = Cc1c2oc3c(C)ccc(C(=O)[*:1])c3nc-2c(C(=O)[*:2])c(N)c1=O; NMeV = CN[C@H](C(=O)O)C(C)C; Sar = CNCC(=O)O
# What was measured:
# [1] = test system: HCT116/S, HCT116/R1, HCT116/R2; assay: Modulation of oxaliplatin cytotoxicity using actinomycin D preincubation (statement in words); format: cell-based; settings: preincubation at moderately toxic concentrations; preliminary
# HCT116/S = settings: oxaliplatin 0 μM (actD alone)
# Method: (§1) Cytotoxicity assays were performed by seeding 4000 cells per well in 96 well plates. […] Cytotoxicity measurements were carried out using the WST-1 colorimetric assay (Boehringer Mannheim) according to the manufacturer's recommendation.
# HCT116/R2 = settings: oxaliplatin 0 μM (actD alone)
# Method: as §1
# HCT116/R1 = settings: oxaliplatin 0 μM (actD alone)
# Method: as §1
smiles,measurement,setting,value
"Cc1c2oc3c(C)ccc(C(=O)N[C@@H]4C(=O)N[C@H](C(C)C)C(=O)N5CCC[C@H]5C(=O)N(C)CC(=O)N(C)[C@@H](C(C)C)C(=O)O[C@@H]4C)c3nc-2c(C(=O)N[C@@H]2C(=O)N[C@H](C(C)C)C(=O)N3CCC[C@H]3C(=O)N(C)CC(=O)N(C)[C@@H](C(C)C)C(=O)O[C@@H]2C)c(N)c1=O [actD, actinomycin D] (I: T[dV]P[Sar][NMeV] / II: T[dV]P[Sar][NMeV]; ester I:1-I:C, II:1-II:C; linker I:N-II:N via Actinocin(9to1))",Effect of actinomycin D preincubation on oxaliplatin activity,[1],synergy effect; also recorded: synergistic effect
same,Cytotoxicity of oxali + actD 0.04 nM,HCT116/S; actD 0.04 nM,9.1%
same,Cytotoxicity of oxali + actD 0.12 nM,HCT116/S; actD 0.12 nM,27.6%
same,Cytotoxicity of oxali + actD 0.36 nM,HCT116/S; actD 0.36 nM,85.4%
same,Cytotoxicity of oxali + actD 0.04 nM,HCT116/R2; actD 0.04 nM,20.6%
same,Cytotoxicity of oxali + actD 0.12 nM,HCT116/R2; actD 0.12 nM,17.7%
same,Cytotoxicity of oxali + actD 0.36 nM,HCT116/R2; actD 0.36 nM,21.6%
same,Cytotoxicity of oxali + actD 0.04 nM,HCT116/R1; actD 0.04 nM,17.3%
same,Cytotoxicity of oxali + actD 0.12 nM,HCT116/R1; actD 0.12 nM,18%
